How the values were obtained:
Type in all cases: binding
STAT5B-NTD [1] = tested on: T1, STAT5B-NTD; assay: Intact MS photoaffinity labeling screen, STAT5B-NTD (365 nm, UHPLC-MS); conditions: for MS labeling percentage, STAT5B: STAT5B-NTD, 365 nm 10 min, no photocatalyst;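 for MS labeling percentage, STAT5B: 0.17 µL of 100 mM DMSO fragment stock added to the protein sample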
T1 construct: His-SUMO (N, cleaved yes); made in house; host or cells: E. coli BL21 RILP
Protocol: STAT5B protein in 7 µM concentration in pH 7.4 PBS buffer was pre-incubated with 0.17 µL PhP (in 100 mM DMSO solution) for 1 h at room temperature in dark. Irradiation was carried out at 4 °C for 10 min using 365 nm UV lamp.
(§1) During the analysis, the column temperature was maintained at a constant 60 °C, and a sample volume of 3 µL was injected for each analysis. Data acquisition was conducted in positive ion mode within the m/z 100–2000 (mass-to-charge ratio) range. For the full protocol and spectra of the hits, see Supplementary Note 2.

[2] = tested on: carbonic anhydrase II (CA); assay: Intact protein MS photoaffinity labeling screen, carbonic anhydrase; conditions: intact protein MS after 10 min irradiation
Protocol: (§2) Using a plate-based format with one fragment per well, each fragment was incubated with the target proteins for 15 min to allow for the formation of non-covalent interactions. […] Finally, the results were directly analyzed from the plate using intact protein mass spectrometry by observing the mass additions that correspond to successful labeling (Fig. 2c, for labeling % values see Supplementary data). The library was first characterized against three benchmark proteins like carbonic anhydrase (CA), lysozyme (Lyo), and myoglobin (Myo).

KRas^G12D = tested on: T2, KRas^G12D; assay: Intact MS photoaffinity labeling screen, KRas G12D (302 nm, LCMS-TOF); conditions: for MS labeling percentage, KRas: KRas G12D, 302 nm 10 min
T2 construct: purchased GSK/GenScript
Protocol: as §2
(§3) The PhP library was screened against BRD4-BD1 and KRas^G12D as follows. […] The probe plate was placed on ice. 15 μL of protein stock solution (1 μM BRD4-BD1 (GSK/GenScript) or KRas^G12D (GSK/GenScript) in PBS buffer) was dispensed into wells containing fragments. The plate was left on ice for 15 min for incubation, then irradiated at 302 nm for 10 min, and centrifuged (1000 rpm, 1 min) to remove any bubbles. […] The deconvoluted spectra were analyzed using R Studio software.

BRD4-BD1 = tested on: T3, BRD4-BD1; assay: Intact MS photoaffinity labeling screen, BRD4-BD1 (302 nm, LCMS-TOF); conditions: for MS labeling percentage, BRD4: BRD4-BD1, 302 nm 10 min
T3 construct: screened the PhP library against the first bromodomain of BRD4 (BRD4-BD1); purchased GSK/GenScript
Protocol: as §2, §3

lysozyme (Lyo) = assay: Intact protein MS photoaffinity labeling screen, lysozyme; conditions: intact protein MS after 10 min irradiation
Protocol: as §2

STAT5B-NTD [3] = tested on: T1, STAT5B-NTD; assay: Intact MS labeling screen, STAT5B-NTD conjugated with photocatalyst Ir-G2-PEG3-COOH (450 nm); conditions: 450 nm 10 min;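 note: 0.14 µL of 100 mM DMSO fragment stock added to the conjugate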
Protocol: For the photocatalysis experiments, 1.4 µL photocatalyst (in 1.4 mM DMSO solution, 10 eq) was pre-incubated with 1.5 µL coupling reagent (0.75 µL, 5.6 mM EDC (20 eq)+0.75 µL 4.2 mM NHS and 1.5 µL 2.1 mM (15 eq) BOP for 30 min in dark. 30 µL STAT5B-NTD (in 7 µM concentration) was added and incubated further at room temperature overnight or at 37 °C for 1 h in dark. After addition of 0.14 µL PhP (in 100 mM DMSO) the solution was further incubated in dark for 1 h. Irradiation was carried out using 450 nm LED lamp (7.6Vx0A) for 10 min at 4 °C.
as §1

myoglobin (Myo) = assay: Intact protein MS photoaffinity labeling screen, myoglobin; conditions: intact protein MS after 10 min irradiation
Protocol: as §2

[4] = PhP library sheet "PhP", binary flag printed as 0 or 1, key not given
[5] = sheet PhP, experimental hit status flag given as 0 or 1
[6] = experimental hit status flag (0/1)
[7] = hit flag 1/0, sheet PhP, photoaffinity labeling screen

Row | MS labeling percentage, CA [2] [%] | Compound | STAT5B-NTD (experimental hit status) (STAT5B-NTD [1]; [4]) | MS labeling percentage, STAT5B (STAT5B-NTD [1]) [%] | MS labeling percentage, KRas (KRas^G12D) [%] | KRAS-G12D (experimental hit status) (KRas^G12D; [4]) | MS labeling percentage, BRD4 (BRD4-BD1) [%] | BRD4-BD1 (experimental hit status) (BRD4-BD1; [4]) | MS labeling percentage, Lyo (lysozyme (Lyo)) [%] | MS labeling percentage, STAT5B+photocat (STAT5B-NTD [3]) [%] | MS labeling percentage, Myo (myoglobin (Myo)) [%] | also measured
1 | 0.5 | Cc1nnc(CNC(=O)CCC2(C)N=N2)[nH]1 [PhP093, Cc1nnc([nH]1)CNC(=O)CCC2(C)N=N2] | 0 | 2 | 0.3 | 0 | 0.5 | 0 | 0 | 0.5 | 0.2 | –
2 | 0.5 | CC1(CCC(=O)N[C@@H](Cc2cccc(F)c2)CN2C(=O)c3ccccc3C2=O)N=N1 [PhP079, Fc(c1)cccc1C[C@H](NC(=O)CCC2(C)N=N2)CN(C3=O)C(=O)c(c34)cccc4] | 0 | 0 | 0.5 | 0 | – | 0 | 0.3 | 1.2 | 0.4 | –
3 | 2.3 | COc1ccc(OC)c(C(C)NC(=O)CCC2(C)N=N2)c1 (stereo not shown) [PhP062, COc1ccc(OC)c(c1)C(C)NC(=O)CCC2(C)N=N2] | – | 2 | 63.2 | – | 7.9 | – | 1 | 1.9 | 1.1 | STAT5B-NTD (experimental hit status) (STAT5B-NTD [1]; [5]): 0; KRAS-G12D (experimental hit status) (KRas^G12D; [5]): 0; BRD4-BD1 (experimental hit status) (BRD4-BD1; [5]): 0
4 | 1 | CC1(CCC(=O)NCCSCc2ccccc2)N=N1 [PhP051, N1=NC1(C)CCC(=O)NCCSCc2ccccc2] | – | 0 | 0 | – | 0.2 | – | 0 | 1 | 0.1 | STAT5B-NTD (experimental hit status) (STAT5B-NTD [1]; [7]): 0; KRAS-G12D (experimental hit status) (KRas^G12D; [7]): 0; BRD4-BD1 (experimental hit status) (BRD4-BD1; [7]): 0

Second part, the compound before the results:

Row | Compound | MS labeling percentage, CA [2] [%] | STAT5B-NTD (experimental hit status) (STAT5B-NTD [1]; [4]) | MS labeling percentage, STAT5B (STAT5B-NTD [1]) [%] | MS labeling percentage, KRas (KRas^G12D) [%] | KRAS-G12D (experimental hit status) (KRas^G12D; [4]) | MS labeling percentage, BRD4 (BRD4-BD1) [%] | BRD4-BD1 (experimental hit status) (BRD4-BD1; [4]) | MS labeling percentage, Lyo (lysozyme (Lyo)) [%] | MS labeling percentage, STAT5B+photocat (STAT5B-NTD [3]) [%] | MS labeling percentage, Myo (myoglobin (Myo)) [%] | also measured
5 | CC1(CCC(=O)NCCc2c[nH]c3ccc(OCc4ccccc4)cc23)N=N1 [PhP081, N1=NC1(C)CCC(=O)NCCc(c[nH]2)c(c23)cc(cc3)OCc4ccccc4] | 0 | 0 | 1 | 0.5 | 0 | 0.5 | 0 | 2.8 | 4 | 0.3 | –
6 | CC1(CCC(=O)NCc2cccc(C(=O)OC(C)(C)C)c2)N=N1 [PhP024, CC(C)(C)OC(=O)c1cccc(c1)CNC(=O)CCC2(C)N=N2] | 0.2 | – | 0 | 0.1 | – | 1.4 | – | 0 | 7.2 | 0.2 | experimental hit status STAT5B-NTD (STAT5B-NTD [1]; 0/1 flag): 0; experimental hit status KRAS-G12D (KRas^G12D; 0/1 flag): 0; experimental hit status BRD4-BD1 (BRD4-BD1; 0/1 flag): 0
7 | Cc1[nH]cnc1CNC(=O)CCC1(C)N=N1 [PhP009, Cc1[nH]cnc1CNC(=O)CCC2(C)N=N2] | 0.6 | – | 1 | 0.7 | – | 0.7 | – | 0 | 1 | 0.4 | STAT5B-NTD (STAT5B-NTD [1]; [6]): 0; KRAS-G12D (KRas^G12D; [6]): 0; BRD4-BD1 (BRD4-BD1; [6]): 0
8 | CC(C)CN1CCOC(CNC(=O)CCC2(C)N=N2)C1 (stereo not shown) [PhP046, CC(C)CN1CCOC(C1)CNC(=O)CCC2(C)N=N2] | 0.2 | – | 1 | 0.2 | – | 0.1 | – | 0 | 0.7 | 0.3 | STAT5B-NTD (experimental hit status) (STAT5B-NTD [1]; [7]): 0; KRAS-G12D (experimental hit status) (KRas^G12D; [7]): 0; BRD4-BD1 (experimental hit status) (BRD4-BD1; [7]): 0
